Results: patent US20230390220A1, “MONOAMINE OXIDASE BLOCKADE THERAPY FOR TREATING CANCER THROUGH REGULATING ANTITUMOR T CELL IMMUNITY” (THE REGENTS OF THE UNIVERSITY OF CALIFORNIA, priority 2020, published 2023)

Key:
5-HTRs on CD8 T cells = assay: Western blot of 5-HTR (MAPK) and TCR signaling in CD8 T cells; assay type: cell-based, mouse; details: anti-CD3 2 days, asenapine 10 μM, restimulated 20 minutes
Protocol: CD8 T cells purified from Maoa-WT and Maoa-KO mice were cultured in vitro in a 24-well plate at 0.5×10^6 cells per well for 2 days, in the presence of plate-bound anti-mouse CD3ε (5 μg/ml), with or without asenapine treatment (10 μM). Cells were then rested on ice for 2 hours and restimulated with plate-bound anti-mouse CD3ε (5 μg/ml) for 20 minutes. Total protein was extracted using a lysis buffer containing 20 mM HEPES (pH 7.6), 150 mM NaCl, 1 mM EDTA, 1% TritonX-100, and protease/phosphatase inhibitor cocktail (Cat #5872S, Cell Signaling). Nuclear protein was extracted using a Nuclear Protein Extraction Kit (Cat #P178833, Thermo Fisher Scientific). Protein concentration was measured a BCA Assay Kit (Cat #23228 and Cat #1859078, Thermo Fisher Scientific). Equal amounts of protein were resolved on a 10% SDS-PAGE gel and then transferred to a PVDF membrane by electrophoresis. MAO-A antibody was purchased from Abcam (Cat #ab126751, Clone EPR7101). […] Signals were visualized with autoradiography using an ECL system (Cat #RPN2232, Thermo Fisher Scientific). The data were analyzed using an Image Lab software (Bio-Rad).

CD8 T cells = assay: In vitro mouse CD8 T cell activation with anti-CD3 (ELISA / flow cytometry); assay type: cell-based; details: for CD8 T cell hyperactivation (expression of CD25, Granzyme B, IL-2, IFN-γ): B6 wildtype CD8 T cells, anti-CD3, Phe 10 μM, Moc 200 μM, Clo 20 μM; for IL-2 and IFN-γ production: Maoa-WT CD8 T cells, 4-day time course post anti-CD3, treatment 10 μM vs NT
From the text: The coating and biotinylated antibodies for the detection of mouse IFN-γ (coating antibody, cat #554424; biotinylated detection antibody, cat #554426) and IL-2 (coating antibody, cat #551216; biotinylated detection antibody, cat #554410) were purchased from BD Biosciences. The streptavidin-HRP conjugate (Cat #18410051) was purchased from Invitrogen. Mouse IFN-γ (Cat #575309) and IL-2 (Cat #575409) standards were purchased from BioLegend. The 3,3′,5,5′-Tetramethylbenzidine (TMB, cat #51200048) substrate was purchased from KPL.

B16-OVA melanoma [1] = assay: Syngeneic B16-OVA melanoma tumor model, tumor growth; assay type: in vivo, mouse; details: for Tumor growth, B16-OVA melanoma prevention model: i.p., phenelzine 30 mg/kg/day, moclobimide 50 mg/kg/day, clorgyline 50 mg/kg/day
Protocol: (§1) B16-OVA melanoma cells (1×10^6 per animal) or MC38 colon cancer cells (3×10^5 per animal) were subcutaneously (s.c.) injected into experimental mice to form solid tumors. In some experiments, mice received intraperitoneal (i.p.) injection of MAOIs (i.e., phenelzine, 30 mg/kg/day; moclobimide, 50 mg/kg/day; or clorgyline, 50 mg/kg/day) to block MAO-A activity. In some experiments, mice received i.p. injection of anti-mouse CD8α antibodies (200 μg/animal/bi-weekly) to deplete CD8 T cells; mice received i.p. injection of isotype antibodies were included as controls. In some experiments, mice received i.p. injection of anti-mouse PD-1 antibodies (300 μg/animal/bi-weekly) to block PD-1; mice received i.p. injection of isotype antibodies were included as controls.
(§2) During an experiment, tumor growth was monitored twice per week by measuring tumor size using a Fisherbrand™ Traceable™ digital caliper (Thermo Fisher Scientific); tumor volumes were calculated by formula ½×L×W^2. At the end of an experiment, tumor-infiltrating immune cells were isolated for analysis using QPCR, flow cytometry, and/or scRNASeq. In some experiments, sera were also collected for serotonin measurement.

MC38 colon cancer = test system: MC38 colon cancer
Protocol: as §1, §2

[2] = test system: A375-A2-ESO-FG human melanoma cells
Protocol: The A375-A2-ESO-FG human melanoma cells (10×10^6 cells per animal) were s.c. injected into NSG mice to form solid tumors. In some experiments, mice received phenelzine treatment through i.p. injection (30 mg/kg/day). In some experiments, mice received adoptive transfer of ESO-T cells through r.o. injection (4×10^6 cells per recipient mouse). Prior to ESO-T cell adoptive transfer, recipient mice were preconditioned with total body irradiation (100 rads). During an experiment, tumor growth was monitored twice per week by measuring tumor size using a Fisherbrand™ Traceable™ digital caliper; tumor volumes were calculated by formula ½×L×W^2.

Maoa-WT CD8 T cells = details: 24-hour post anti-CD3 stimulation, phenelzine 10 μM vs NT, ELISA
Protocol: Spleen and lymph node cells were harvested from Maoa-KO or Maoa-WT (B6 wildtype) mice and subjected to MACS using a Mouse CD8 T Cell Isolation Kit (Cat #120117044, Miltenyi Biotec) following the manufacturer's instructions. Purified mouse CD8 T cells were cultured in vitro in C10 medium, in a 24-well plate at 0.5×10^6 cells per ml medium per well, in the presence of plate-bound anti-mouse CD3ε (5 μg/ml) for up to 4 days. At indicated time points, cells were collected for flow cytometry analysis of surface marker expression and intracellular effector molecule production, and for QPCR analysis of mRNA expression; cell culture supernatants were collected for ELISA analysis of effector cytokine production. In experiments studying serotonin signaling, cells were cultured in C10 medium made of serotonin-depleted FBS that was pretreated overnight with charcoal-dextran (Cat #C6241, Sigma; 1 gram per 50 ml FBS). L-Ascorbic acid (Cat #A4403, Sigma; 100 μM) was added to C10 medium to stabilize T cell-produced or supplemented serotonin. […] In some experiments, cells were supplemented with exogenous serotonin (SER, 10 μM) to stimulate serotonin signaling. In some experiments, cells were treated with serotonin receptor antagonist asenapine (ASE, 10 μM) to block serotonin receptor signaling. […] The absorbance at 450 nm was measured using an Infinite M1000 microplate reader (Tecan).

B16-OVA melanoma [3] = details: Maoa-WT mice
Protocol: as §1, §2
HPLC was used to measure intratumoral and serum serotonin levels as previously described (47, 48). Briefly, tumors and sera were collected from experimental mice at indicated time points, and were snap-frozen using liquid nitrogen. Frozen samples were thawed and homogenized using methanol and acetonitrile by vortexing. Homogenized samples were centrifuged, and supernatants were collected to new tubes and evaporated under a stream of argon. Dried sample pellets were then reconstituted in HPLC running buffer and were ready for analysis. Serotonin concentration was quantified using a C 18 column by reverse phase HPLC (System Gold 166P detector, Beckman Coulter)

[4] = test system: tumor-infiltrating CD8 T cells; details: B16-OVA, day 17, phenelzine vs NT, FACS
Protocol: as §1

[5] = B6 wildtype mice, combination study with anti-PD-1 (Iso, Phe+Iso, αPD-1, Phe+αPD-1)

CN1CC2c3ccccc3Oc3ccc(Cl)cc3C2C1 (stereo not drawn) [asenapine]
Enhancement of MAPK signaling (ERK phosphorylation) and TCR downstream signaling (NFAT, NF-κB, c-Jun) in Maoa-KO T cells (5-HTRs on CD8 T cells): largely abrogated | IL-2 and IFN-γ production difference between Maoa-WT and Maoa-KO CD8 T cells (CD8 T cells; day 2 post anti-CD3 stimulation, asenapine 10 μM, ELISA): eliminated the cytokine production difference between Maoa-WT and Maoa-KO CD8 T cells

C#CCN(C)CCCOc1ccc(Cl)cc1Cl [clorgyline]
Tumor growth, B16-OVA melanoma prevention model (B16-OVA melanoma [1]; B6 wildtype mice): dramatically suppressed tumor growth | CD8 T cell hyperactivation (expression of CD25, Granzyme B, IL-2, IFN-γ) (CD8 T cells): efficiently induced CD8 T cell hyperactivation

O=C(NCCN1CCOCC1)c1ccc(Cl)cc1 [mocolobemide, moclobemide]
Tumor growth, B16-OVA melanoma prevention model (B16-OVA melanoma [1]; B6 wildtype mice): dramatically suppressed tumor growth | CD8 T cell hyperactivation (expression of CD25, Granzyme B, IL-2, IFN-γ) (CD8 T cells): efficiently induced CD8 T cell hyperactivation

NNCCc1ccccc1 [phenelzine]
B16-OVA tumor growth (B16-OVA melanoma [1]; [5]): significantly suppressed tumor growth at a level comparable to the anti-PD-1 treatment | Tumor growth, B16-OVA melanoma prevention model (B16-OVA melanoma [1]; B6 wildtype mice): dramatically suppressed tumor growth | Tumor progression, pre-established B16-OVA melanoma solid tumors (B16-OVA melanoma [1]; B6 wildtype mice, phenelzine vs NT): effectively suppressed tumor progression | B16-OVA tumor growth in immunodeficient NSG mice (B16-OVA melanoma [1]; NSG mice, phenelzine vs NT): did not suppress the growth | Tumor suppression with CD8 T cells depleted (B16-OVA melanoma [1]; tumor-bearing B6 wildtype mice, phenelzine + anti-CD8): no tumor suppression was observed | MC38 tumor growth (MC38 colon cancer; [5]): completely suppressed tumor growth as effectively as the anti-PD-1 treatment | MC38 tumor growth in immunodeficient NSG mice (MC38 colon cancer; NSG mice, phenelzine vs NT): did not suppress the growth | A375-A2-ESO-FG tumor growth without ESO-T cell adoptive transfer ([2]; NSG mice without ESO-T cells, phenelzine vs NT): no tumor suppression was observed | A375-A2-ESO-FG tumor growth with ESO-T cell adoptive transfer ([2]; NSG mice, ESO-T cells, phenelzine i.p. 30 mg/kg/day vs NT): effectively suppressed tumor growth | Serotonin levels in CD8 T cell cultures (Maoa-WT CD8 T cells): recapitulated the serotonin overproduction phenotype of Maoa-KO CD8 T cells | Phenelzine treatment-induced accumulation of serotonin in the tumor after depletion of CD8 T cells (B16-OVA melanoma [3]; anti-CD8 antibody depletion, day 14, HPLC): largely abolished | Serum serotonin levels (B16-OVA melanoma [3]; day 14, with or without phenelzine and anti-CD8, HPLC): no significant changes in serotonin levels in serum | Intratumoral serotonin levels (B16-OVA melanoma [3]; day 14 post tumor challenge, phenelzine vs NT, HPLC): increased levels of serotonin | Expression of exhaustion markers (PD-1) on tumor-infiltrating CD8 T cells [4]: reduced expression of exhaustion markers | Production of effector molecules (IFN-γ and Granzyme B) by tumor-infiltrating CD8 T cells [4]: enhanced production of effector molecules | CD8 T cell hyperactivation (expression of CD25, Granzyme B, IL-2, IFN-γ) (CD8 T cells): efficiently induced CD8 T cell hyperactivation | IL-2 and IFN-γ production (CD8 T cells; ELISA): increased production of the effector cytokines IL-2 and IFN-γ

NCCc1c[nH]c2ccc(O)cc12 [serotonin]
IL-2 and IFN-γ production (CD8 T cells; ELISA): T cell hyperactivation and elevated production of IL-2 and IFN-γ
